Test results: US5182276A, “Nootropic agent” (Santen Pharmaceutical Co., Ltd., priority 1989, dated 1993)
Structures can show the parent of a compound that is named as a salt.

How the values were obtained:
[1] = Test of Hypoxia-Inhibiting Effect (survival time under nitrogen gas); assay type: in vivo, ICR mice; settings: 100 mg/kg oral
Protocol: In this test, groups (9 to 10 mice each) of ICR mice were employed. The compound to be tested was suspended in a 0.5% aqueous methyl cellulose solution and was orally administered. 60 Minutes after the administration,each mouse was placed in a transparent container (volume 500m μ) having an exhaust hole and N, gas was supplied to the container at a rate of 5μ/min. The time (survival time in sec.) ,elapsed from the initiation of the nitrogen gas supply until the cessation of breathing of each mouse was determined. As the compounds to be tested, there was used (+)-3,4-dihydro-2-(5-methoxy-2- (3-(N-methyl-N-[2-[(3,4]propoxy]phenyl]-4-methyl-3-oxo-2H-1,4-benzothiazine fumarate (hereinafter referred to as "Compound A") which is a representative compound of the present invention. The results obtained are listed in the following Table 1.

[2] = test system: cerebral ischemia / energy metabolic substances in the brain; assay: Test of Cerebral Energy Metabolism (bilateral common carotid artery ligation, SHR); assay type: in vivo, male SHR's (rat); settings: for Hippocampus E.C. (energy charge): **: P < 0.01 vs. Pathema Control (0.628 ± 0.026); for Cerebral Cortex E.C. (energy charge): **: P < 0.01 vs. Pathema Control (0.631 ± 0.0243); for Striatum E.C. (energy charge): **: P < 0.01 vs. Pathema Control (0.679 ± 0.032)
Protocol: 24-Week-old male SHR's were fixed on the back thereof under with 1.5% halothane anesthetic (70% N,O, 30% O2) and the neck thereof was subjected to a median incision. The cerebral ischemia was caused by immediately ligating bilateral common carotid artery with a silk fiber just before the recovery from the anesthetic state. 3.5 Hours after the ligation, the animals were sacrificed by irradiating them with microwaves (5 KW, 1.5 second). The brain tissues were collected and divided into cerebral cortex, hippocampus and striatum. The brain tissues were homogenized in a 0.6N aqueous perchloric acid solution and centrifuged at 3,000 rpm for 20 minutes. The resulting supernatant was used as the sample for detecting the energy metabolic substances. In the measurement, ATP-Uv test (available from Sigma Co., Ltd.) was used as ATP and lactate-UV test (available from Boeringer Mannheim Yamanouchi Co., Ltd.) was used as lactate. The detection of ADP and AMP was performed according to the method of Bergmeyer (Klin. Chem. Klin. Biochem., 1975, 13, p. 507). The energy charge (hereinafter referred to as "E.C.") which served as an indication of the degree of energy sufficiency due to high energy phosphoric acid of adenine nucleotide was calculated from the following relation according to the method of Atkinson (J. Biol. Chem., 1967, 242, p. 3329):
E.C.=(ATP+1/2ADP)/(ATP+ADP+AMP)
In the test, the compound to be tested was suspended in a 0.5% aqueous solution of methyl cellulose and was administered, through an oral route, to the animals to be tested 30 minutes before the ligation of the both common carotid arteries.

[3] = Water Maze-Learning Test after cerebral ischemia; assay type: in vivo, male SHR's (rat); settings: for Swimming Time, 3rd Session: **: P < 0.01 vs. Pathema Control (114.9 ± 16.93); for Swimming Time, 2nd Session: **: P < 0.01 vs. Pathema Control (130.0 ± 17.13); for Swimming Time, 1st Session: **: P < 0.01 vs. Pathema Control (167.5 ± 9.59)
Protocol: (§1) 25-Week-old male SHR's were fixed on the back thereof under anesthetization with 1.5% halothane anesthetic (70% N,O, 30% O2) and the neck thereof was subjected to a median incision. The cerebral ischemia was caused by immediately ligating the both common carotid arteries with,a silk fiber after a vinyl tube was attached to the artery and just before the recovery from the anesthetic state. 3.5 Hours after the ligation, the silk fiber was cut to again initiate the blood circulation. In the test, the compound to be tested was suspended in a 0.5% aqueous solution of methyl cellulose and was initially administered, through oral route, to the animals to be tested 30 minutes before the ligation of the common artery and thereafter it was continuously administered every day over 16 days through oral route provided that the compound was not administered during the behavioral pharmacologic tests of the animals and was administered after completion of the tests.
This water maze-learning test was initiated on 7th day after the cerebral ischemia condition was formed. A cylindrical water tank having a diameter of 1.2 m was filled with black water and the temperature thereof was maintained at 20±1° C. A platform which was submerged in the water to a depth of 2 cm and could not be externally seen through the water (hereinafter referred to as "platform") was placed at the central point existing between the center of the water tank and the wall thereof.
The water maze-learning test was performed once a day (one session) which was continuously performed over three days (three sessions). In the first session (1st day), the animal was allowed to freely swim in the water tank which was free of platforms, then a platform was positioned in the tank and the animal was allowed to learn the presence of the platform of refuge by placing the animal thereon for 30 seconds. The animal was released through four predetermined points on the wall of the water tank over four times and the total time (swimming time (sec)) required until the animal got on the platform over four trials was determined. After the four trials, the animal was again allowed to stand on the platform for […] and thus the first session was completed. In this respect, the maximum total time required over four trials was determined to be 180 seconds. […] The 2nd and 3rd sessions were performed under the same conditions used in the first session except that the test animal was not allowed to freely swim in the water tank prior to the initiation of the test. The spatial positions of the water tank and the platform in the laboratory were not changed at all during the water maze-learning test term.

[4] = Trial Passive Avoidance Training after cerebral ischemia; assay type: in vivo, male SHR's (rat); settings: for Reaction Latency: cut-off 300 s, **: P < 0.01 vs. Pathema Control (146.7 ± 30.42)
Protocol: as §1
As a testing apparatus, there was used a training box comprising a bright room whose floor was formed from grid, a dark room capable of applying footshock through the floor made of grid and a port opening equipped with a guillotine door disposed at the boundary of these rooms through which the animal could freely move between these two rooms. First, as an acquired trial, the rat was put in the bright room for 30 seconds while the guillotine door was closed, then the guillotine door was opened and the time required for the rat to enter into the dark room through the guillotine door was determined. […] After 24 hours, the rat was again put in the bright room, 30 seconds thereafter the guillotine door was opened and the time required for the animal to confirm the entrance and to enter into the dark room (the reaction latency) was determined. […]

[5] = test system: Choline acetyltransferase (ChAT); assay: Activity of Choline acetyltransferase (ChAT) in the striatum after cerebral ischemia; assay type: in vivo, male SHR's (rat)
Protocol: as §1
After completion of the learning test, the rat was sacrificed by decapitation and the activity of ChAT which had been believed to be involved in the memory function of animals was determined. The brain tissues were homogenized in 0.05% Triton X-100 containing-phosphate buffer solution (pH 7.4) and the resulting supernatant was used as a sample for determining the ChAT activity. The activity of ChAT was determined according to the method of Fonnum (J. Neurochem., 1975,24, p. 407).

Acute toxicity, oral = settings: rat, in vivo, rats
Description: The acute toxicity thereof was investigated by orally administering the compounds of Formula (I) to rats and they were confirmed to be highly safe.
Compound A was orally administered to rats to determine the acute toxicity thereof.

## COc1ccc(OCCCN(C)CCOc2ccc3c(c2)OCO3)c(C2Sc3ccccc3N(C)C2=O)c1 (single isomer, unassigned; (+)) [Compound A, (+)-3,4-dihydro-2-(5-methoxy-2-(3-(N-methyl-N-[2-[(3,4]propoxy]phenyl]-4-methyl-3-oxo-2H-1,4-benzothiazine fumarate]
[1]
  effect on survival time under low oxygen supply (in words): significant effect of extending survival time
[1]; 60 min before N2, average ± standard error, **: P < 0.01 vs. Control (25.8 ± 0.61)
  Survival Time: 35.7 ± 1.28 s
[2]; 10 mg/kg oral
  Hippocampus E.C. (energy charge): 0.706 ± 0.025
  Cerebral Cortex E.C. (energy charge): 0.705 ± 0.0237
  Striatum E.C. (energy charge): 0.703 ± 0.025
[2]; 10 mg/kg oral, cerebrum cortex and hippocampus
  reduction in the E.C. due to the ischemia (in words): significantly improved
[2]; 25 mg/kg oral
  changes in the ATP and the lactate due to the ischemia (in words): significantly inhibited
  effect on the ratio lactate/pyruvate (in words): substantially improved
[2]; 25 mg/kg oral, 30 min before 3.5 h ligation, average ± standard error, **: P < 0.01 vs. Pathema Control (10.0 ± 1.03)
  ATP: 16.9 ± 0.87 n mole/mg Protein
[2]; 25 mg/kg oral, 30 min before 3.5 h ligation, average ± standard error, **: P < 0.01 vs. Pathema Control (40.3 ± 6.78)
  Lactate/Pyruvate: 19.1 ± 2.71
[2]; 25 mg/kg oral, 30 min before 3.5 h ligation, average ± standard error, **: P < 0.01 vs. Pathema Control (128.6 ± 15.84)
  Lactate: 62.3 ± 10.20 n mole/mg Protein
[2]; 30 mg/kg oral
  Hippocampus E.C. (energy charge): 0.762 ± 0.022
  Cerebral Cortex E.C. (energy charge): 0.764 ± 0.0078
  Striatum E.C. (energy charge): 0.768 ± 0.0063
[2]; 30 mg/kg oral, cerebral cortex, hippocampus and striatum
  reduction in the E.C. due to the ischemia (in words): completely inhibited
[3]; 10 mg/kg oral
  Swimming Time, 3rd Session: 40.9 ± 11.82 s
  Swimming Time, 2nd Session: 61.4 ± 15.06 s
  Swimming Time, 1st Session: 105.8 ± 16.50 s
[3]; 30 mg/kg oral
  Swimming Time, 3rd Session: 34.5 ± 3.60 s
  Swimming Time, 2nd Session: 59.6 ± 9.60 s
  Swimming Time, 1st Session: 97.2 ± 18.85 s
[3]; vs. pathema control group
  time required to reach the base (in words): significantly shorter
[4]; 10 mg/kg oral
  Reaction Latency: 271.1 ± 19.21 s
[4]; 30 mg/kg oral
  Reaction Latency: 280.8 ± 19.25 s
[4]; vs. pathema control group
  average reaction latency (in words): significantly longer
[5]; 10 mg/kg oral, *: P < 0.05 vs. Pathema Control (3.43 ± 0.097)
  ChAT activity in the striatum: 3.84 ± 0.102 n mol/mg Protein
[5]; 30 mg/kg oral, **: P < 0.01 vs. Pathema Control (3.43 ± 0.097)
  ChAT activity in the striatum: 3.94 ± 0.201 n mol/mg Protein
[5]; rat, in vivo
  lowering of the activity of ChAT in the striatum due to the cerebral ischemia (in words): inhibited
Acute toxicity, oral
  LD50: 293 mg/kg
